Series [1] has as its system Trypanosoma brucei rhodesiense, STIB 900 strain. Description: Activity against Trypanosoma brucei rhodesiense (Alamar Blue). Format: cell-based. Conditions: read-out: IC50 Trypanosoma b. rhodesiense. As to the method:
Trypanosoma brucei rhodesiense, STIB 900 strain, and the standard drug, melarsoprol, were used for the assay. This stock was isolated in 1982 from a human patient in Tanzania and after several mouse passages cloned and adapted to axenic culture conditions. Minimum Essential Medium (50 μL) supplemented with 25 mM HEPES, 1g/L additional glucose, 1% MEM non-essential amino acids (100x), 0.2 mM 2-mercaptoethanol, 1 mM Na-pyruvate and 15% heat inactivated horse serum was added to each well of a 96-well microtiter plate. Serial drug dilutions of seven 3-fold dilution steps covering a range from 90 to 0.123 μg/mL were prepared. Then 10^4 bloodstream forms of T. b. rhodesiense STIB 900 in 50 μL was added to each well and the plate incubated at 37 °C under a 5% CO2 atmosphere for 72 h. 10 μL Alamar Blue (resazurin, 12.5 mg in 100 mL double-distilled water) was then added to each well and incubation continued for a further 2–4 h. Then, the plates were read with a Spectramax Gemini XS microplate fluorometer (Molecular Devices Cooperation, Sunnyvale, CA, USA) using an excitation wavelength of 536 nm and an emission wavelength of 588 nm. Data were analyzed using the microplate reader software Softmax Pro (Molecular Devices Cooperation, Sunnyvale, CA, USA).

The subject of series [2] is T. cruzi Tulahuen strain C2C4. The experiment in a line: Activity against Trypanosoma cruzi (intracellular amastigotes in L6 cells, beta-galactosidase/CPRG). Conditions: for IC50: Trypanosoma cruzi, TULAHUEN, Myoblast, in Rattus norvegicus, 96 h, intracellular amastigotes in L6 rat skeletal myoblasts, Tulahuen C2C4, 96 h. Format: cell-based. As to the method:
Rat skeletal myoblasts (L6 cells) were seeded in 96-well microtitre plates at 2000 cells/well in 100 μL RPMI 1640 medium with 10% FBS and 2 mM L-glutamine. After 24 h the medium was removed and replaced by 100 μL per well containing 5000 trypomastigote forms of T. cruzi Tulahuen strain C2C4 containing the β-galactosidase (Lac Z) gene. After 48 h, the medium was removed from the wells and replaced by 100 μL fresh medium with or without a serial drug dilution of seven 3-fold dilution steps covering a range from 90 to 0.123 μg/mL. After 96 h of incubation, the plates were inspected under an inverted microscope to assure growth of the controls and sterility. Then, the substrate CPRG/Nonidet (50 μL) was added to all wells. A color reaction developed within 2–6 h and could be read photometrically at 540 nm. Data were transferred into the graphic programme Softmax Pro (Molecular Devices), which calculated IC50 values. Benznidazole was the reference drug used.

For series [3], the system named is L. donovani strain MHOM/ET/67/L82. The experiment in a line: Activity against Leishmania donovani axenic amastigotes (Alamar Blue). It counts as cell-based. The conditions noted are these: for IC50: Leishmania donovani, axenic amastigotes, MHOM/ET/67/L82, 72 h. As to the method: Amastigotes of L. donovani strain MHOM/ET/67/L82 were grown in axenic culture at 37 °C in SM medium at pH 5.4 supplemented with 10% heat-inactivated fetal bovine serum under an atmosphere of 5% CO2 in air. One hundred microlitres of culture medium with 10^5 amastigotes from axenic culture with or without a serial drug dilution were seeded in 96-well microtitre plates. Serial drug dilutions covering a range from 90 to 0.123 μg/mL were prepared. After 72 h of incubation the plates were inspected under an inverted microscope to assure growth of the controls and sterile conditions. 10 μL of Alamar Blue (12.5 mg resazurin dissolved in 100 mL distilled water) were then added to each well and the plates incubated for another 2 h. Then, the plates were read with a Spectramax Gemini XS microplate fluorometer using an excitation wavelength of 536 nm and an emission wavelength of 588 nm. Data were analyzed using the software Softmax Pro (Molecular Devices Cooperation, Sunnyvale, CA, USA). Decrease of fluorescence (=inhibition) was expressed as percentage of the fluorescence of control cultures and plotted against the drug concentrations. From the sigmoidal inhibition curves the IC50 values were calculated. Miltefosine was used as reference drug.

Another series deals with P. falciparum K1 strain. The experiment in a line: Activity against Plasmodium falciparum ([3H]-hypoxanthine incorporation). Format: cell-based. Conditions: for IC50: Plasmodium falciparum. The method, then:
In vitro activity against erythrocytic stages of P. falciparum was determined by a modified [^3H]-hypoxanthine incorporation assay, using the chloroquine- and pyrimethamine-resistant K1 strain and the standard drug […]. Briefly, parasite cultures incubated in RPMI 1640 medium with 5% Albumax (without hypoxanthine) were exposed to serial drug dilutions in microtiter plates. After 48 h of incubation at 37°C in a reduced oxygen atmosphere, 0.5 μCi ^3H-hypoxanthine was added to each well. Cultures were incubated for a further 24 h before they were harvested onto glass-fiber filters and washed with distilled water. The radioactivity was counted using a Betaplate™ liquid scintillation counter (Wallac, Zurich). […] IC50 values were calculated from the sigmoidal inhibition curves using Microsoft Excel. Chloroquine was the reference drug used.

Series [4] can be described thus: Cytotoxicity against L6 cells (Alamar Blue). It counts as cell-based, rat. As to the method: Assays were performed in 96-well microtiter plates, each well containing 100 μL of RPMI 1640 medium supplemented with 1% L-glutamine (200 mM) and 10% fetal bovine serum, and 4 × 10^4 L6 cells (a […] cell line derived from rat skeletal myoblasts). Serial drug dilutions of seven 3-fold dilution steps covering a range from 90 to 0.123 μg/mL were prepared. After 72 h of incubation, the plates were inspected under an inverted microscope to assure growth of the controls and sterile conditions. Ten μL of Alamar Blue solution was then added to each well and the plates incubated for another 2 h. Then the plates were read with a Spectramax Gemini XS microplate fluorometer using an excitation wavelength of 536 nm and an emission wavelength of 588 nm. Data were analysed using the microplate reader software Softmax Pro. Podophyllotoxin was the reference drug used.
For orientation: The colour change of resazurin is a common sign of viable cells or microbes.

Where [5] appears, read: bloodstream forms, STIB 900, 72 h, average of at least two independent assays in duplicates.
Setting [6] is: K1, erythrocytic stages, K1 strain resistant to chloroquine and pyrimethamine, read-out: IC50 Plasmodium falciparum.

Values after ≈ are worked out from the molar mass of the structure shown. Like-named read-outs stand apart in the source and are kept apart here.

Broadly, the IC50 is the concentration needed to halve the response being measured.

Regarding `CC(C)=CCC/C(C)=C/CC/C(C)=C/CC/C(C)=C/CCc1ccoc1` [Compound 1, furospinulosin-1], the half-maximal inhibitory concentration (IC50) was 27.4 µg/mL (≈ 77.4 µM) in series [1] (setting [5]), > 90 µg/mL in series [2], 14.2 µg/mL (≈ 40 µM) in series [3] and 11.2 µg/mL (≈ 31.5 µM) in the series with P. falciparum K1 strain (setting [6]). Moreover, in series [4] (rat), the IC50 at 72 h is > 90 µg/mL.
As for `CC(C)=CCC/C(C)=C/CC/C(C)=C/CC/C(C)=C/CC/C(C)=C/CCc1ccoc1` [Compound 2, furospinulosin-2], the IC50 was 16.2 µg/mL (≈ 38.2 µM) in series [1] (setting [5]), > 90 µg/mL in series [2], > 90 µg/mL in series [3] and 3.51 µg/mL (≈ 8.3 µM) in the series on P. falciparum K1 strain (setting [6]). In series [4] (rat), this compound displayed an IC50 at 72 h of 34 µg/mL (≈ 80.4 µM).
As for `C/C(=C\CCc1ccoc1)C[C@@H](O)C[C@@H](C)CCCc1ccoc1` [Compound 3, furospongin-1], the IC50 came to 13.9 µg/mL (≈ 42.2 µM) in series [1] (setting [5]), 17.5 µg/mL (≈ 52.9 µM) in series [2], 4.8 µg/mL (≈ 14.5 µM) in series [3] and 14 µg/mL (≈ 42.4 µM) in the series with P. falciparum K1 strain (setting [6]). This compound also yielded a half-inhibitory concentration (IC50) at 72 h in series [4] (rat) of 27.4 µg/mL (≈ 83.1 µM).
For the compound `COC(=O)/C(C)=C/CC/C(=C/CC/C(C)=C/CC/C(C)=C/CCc1ccoc1)C(=O)O` [Compound 4, furospongin-4], the IC50 in series [1] (setting [5]) is 17.9 µg/mL (≈ 41.9 µM); in series [2], > 90 µg/mL; in series [3], > 90 µg/mL; in the series on P. falciparum K1 strain (setting [6]), 7.51 µg/mL (≈ 17.5 µM). Further, the IC50 at 72 h in series [4] (rat) is > 90 µg/mL.
With `CC(C)=CCC/C(C)=C/CC/C(C)=C/CC/C(C)=C/CC/C(C)=C/CC/C(C)=C/CCC1(C)C=Cc2cc(O)ccc2O1` (centres unmarked) [Compound 6, 2-(hexaprenylmethyl)-2-methylchromenol], the half-maximal inhibitory concentration (IC50) in series [1] (setting [5]) was 41.4 µg/mL (≈ 70.8 µM); in series [2], > 90 µg/mL; in series [3], 15.9 µg/mL (≈ 27.2 µM); in the series on P. falciparum K1 strain (setting [6]), > 20 µg/mL. In addition, in series [4] (rat), the IC50 at 72 h is > 90 µg/mL.
Regarding `CC(C)=CCC/C(C)=C/CC/C(C)=C/CC/C(C)=C/CC/C(C)=C/CC/C(C)=C/CC/C(C)=C/CC/C(C)=C/Cc1cc(C(=O)O)ccc1O` [Compound 7, 4-hydroxy-3-octaprenylbenzoic acid], the 50% inhibitory concentration (IC50) in series [1] (setting [5]) was 13.1 µg/mL (≈ 19.2 µM); in series [2], > 90 µg/mL; in series [3], 5.6 µg/mL (≈ 8.2 µM); with P. falciparum K1 strain (setting [6]), ~1 µg/mL (≈ 1.46 µM). For the same compound, in series [4] (rat), the IC50 at 72 h was found to be 86.5 µg/mL (≈ 127 µM).
In the case of `CC(C)=CCC/C(C)=C/CC/C(C)=C/CC/C(C)=C/Cc1cc(CC(=O)O)ccc1O` [Compound 8, 4-hydroxy-3-tetraprenylphenylacetic acid], the IC50 in series [1] (setting [5]) was 0.6 µg/mL (≈ 1.41 µM); in series [2], > 90 µg/mL; in series [3] it was > 90 µg/mL; in the series on P. falciparum K1 strain (setting [6]), 3.3 µg/mL (≈ 7.77 µM). Besides, in series [4] (rat), the IC50 at 72 h is > 90 µg/mL.
Take `CC(C)=CCC/C(C)=C/CC/C(C)=C/CC/C=C(\C)CC/C=C(\C)CCC=C(C)C` [Compound 10, squalene]: the IC50 is 15 µg/mL (≈ 36.6 µM) in series [1] (setting [5]), > 90 µg/mL in series [2], > 90 µg/mL in series [3] and ~1 µg/mL (≈ 2.43 µM) with P. falciparum K1 strain (setting [6]). Besides, half-maximal inhibition in series [4] (rat) (IC50 at 72 h) required 34.9 µg/mL (≈ 84.9 µM).
As to `CC(=O)O[C@H]1C=C2C(=O)OCC2[C@@]2(C)C1[C@@]1(C)CCCC(C)(C)C1C[C@@H]2OC(C)=O` (some centres unmarked) [Compound 11, dorisenone D], the IC50 was 2.47 µg/mL (≈ 5.9 µM) in series [1] (setting [5]), > 90 µg/mL in series [2], > 90 µg/mL in series [3] and 0.43 µg/mL (≈ 1.03 µM) in the series with P. falciparum K1 strain (setting [6]). In addition, the “selectivity index (IC50 against L6 cells/IC50 against parasite)” value with P. falciparum K1 strain (towards the malaria parasite (P. falciparum)) is recorded as > 9. For the same compound, the midpoint of inhibition in series [4] (rat), the IC50 at 72 h, lay at 3.93 µg/mL (≈ 9.39 µM).
For the compound `CC(=O)O[C@H]1C=C2C(=O)OCC2[C@]2(C)CCC3C(C)(C)CCC[C@]3(C)C12` (stereo partly drawn) [Compound 12, 11β-acetoxyspongi-12-en-16-one], the half-inhibitory concentration (IC50) in series [1] (setting [5]) was 4.14 µg/mL (≈ 11.5 µM); in series [2] it was ~4 µg/mL (≈ 11.1 µM); in series [3], 0.75 µg/mL (≈ 2.08 µM); in the series on P. falciparum K1 strain (setting [6]), ~1 µg/mL (≈ 2.77 µM). Moreover, the “selectivity index (IC50 against L6 cells/IC50 against parasite)” value in series [3] (for L. donovani) is 4.4. In series [4] (rat), the midpoint of inhibition, the IC50 at 72 h, lay at 3.32 µg/mL (≈ 9.21 µM).
As for `CC(=O)O[C@H]1CC2[C@@]3(C)CCCC(C)(C)C3CC[C@@]2(C)C2CC=C3CO[C@@H](O)C3[C@]21C` (stereo partly drawn) [Compound 13, 12-epi-deoxoscalarin], the IC50 was 55.2 µg/mL (≈ 128 µM) in series [1] (setting [5]), 40.4 µg/mL (≈ 93.9 µM) in series [2], > 90 µg/mL in series [3] and 7.48 µg/mL (≈ 17.4 µM) in the series with P. falciparum K1 strain (setting [6]). This compound also registered an IC50 at 72 h in series [4] (rat) of 60.3 µg/mL (≈ 140 µM).
Turning to `OCCc1c[nH]c2ccccc12` [Compound 14, tryptophol], the concentration for half-maximal inhibition (IC50) in series [1] (setting [5]) stood at 5.89 µg/mL (≈ 36.5 µM); in series [2] it was 49.4 µg/mL (≈ 306 µM); in series [3], 9.6 µg/mL (≈ 59.6 µM); with P. falciparum K1 strain (setting [6]), 5.08 µg/mL (≈ 31.5 µM). Moreover, in series [2] (ratio of IC50 values), the “fold less active against T. cruzi than against T. b. rhodesiense” value is recorded as 8 fold. Besides, half-maximal inhibition in series [4] (rat) (IC50 at 72 h) was put at 63.5 µg/mL (≈ 394 µM).
In series [2], `O=C(Cn1ccnc1[N+](=O)[O-])NCc1ccccc1` [benznidazole, reference compound] returned an IC50 of 0.359 µg/mL (≈ 1.38 µM).
In the case of `CCN(CC)CCCC(C)Nc1ccnc2cc(Cl)ccc12` (centres unmarked) [chloroquine, reference compound], the IC50 in the series with P. falciparum K1 strain (K1, read-out: IC50 Plasmodium falciparum) was 0.056 µg/mL (≈ 0.175 µM).
On to `Nc1nc(N)nc(Nc2ccc([As]3SCC(CO)S3)cc2)n1` (centres unmarked) [melarsoprol, reference compound], for which the IC50 in series [1] (72 h) amounted to 0.003 µg/mL.
For the compound `CCCCCCCCCCCCCCCCOP(=O)([O-])OCC[N+](C)(C)C` [miltefosine, reference compound], half-maximal inhibition in series [3] (IC50) required 0.2 µg/mL (≈ 0.491 µM).
With `COc1cc([C@@H]2c3cc4c(cc3[C@H](O)[C@H]3COC(=O)[C@H]23)OCO4)cc(OC)c1OC` [podophyllotoxin, reference compound], in series [4] (L6 cells (rat skeletal myoblasts), 72 h, read-out: IC50 Cytotoxicity), the IC50 at 72 h stood at 0.004 µg/mL (≈ 0.00965 µM).

Values taken from PMC2817922, “Inhibitory Activity of Marine Sponge-Derived Natural Products against Parasitic Protozoa” (Marine Drugs, 2010).
